Legend:
CD34+ HSPCs [1] = assay: editing of CD34+ HSPCs with purified i53 variant proteins and HBB-SNP AAV donor; NGS of editing outcomes; assay type: cell-based, human; details: for increase of % HDR over control edited without protein: FIG. 13, average across all concentrations (0.1, 0.2, 0.4 mg/mL) and of L67R and L67H; for increase in levels of HDR corrected alleles over DM / impact on % NHEJ: protein 0.4 mg/mL; for increase in levels of HDR corrected alleles over DM: L67R/L67H value is the average of both; for levels of % HDR corrected alleles: HBB-SNP AAV MOI 312.5 with protein 0.4 mg/mL, compared with 2500 MOI alone (8x the amount of AAV); for impact on % NHEJ: HBB-SNP AAV MOIs 312.5 and 2500
Method: (§1) Chemically-modified single guide RNAs (sgRNAs) used to edit CD34+ HSPCs at the HBB locus were purchased from Synthego. The sgRNA sequences were modified by adding 2′-O-methyl-3′-phosphorothioate at the three terminal nucleotides of the 5′ and 3′ ends. The target sequence for the HBB sgRNA is as follows: HBB: 5′[…]-3′ (SEQ ID NO: 74). Cas9 protein (SpyFi Cas9) was purchased from Aldevron. The RNPs were complexed at a Cas9:sgRNA molar ratio of 1:2.5 at 25° C. for 10-15 min prior to electroporation. Cells were collected, counted, and pelleted at 180 g×7 min. The cell pellets were resuspended in Maxcyte buffer with complexed RNPs and electroporated using a Maxcyte EXPERT ATx Nucleofector. After electroporation cells were plated at 3.5×10^5 cells/mL in media supplemented with cytokines and the desired AAV donor added at 5.0×10^2-2.5×10^4 vector genomes/cell. 24 h after nucleofection, cells were spun down, washed once with media, and seeded into AAV-free media at a density of 3.5×10^5 cells/mL.
(§2) CD34+ HPSCs were edited with protein variants 3 days post thaw and were harvested 2 days post nucleofection for NGS analysis or 3-5 days post nucleofection for GFP expression analysis. Editing reactions with proteins at a given concentration were repeated in duplicate or triplicate (either using the same CD34+ HSPC donor or across multiple donors).
24 h after nucleofection, cells were spun down, washed with media, and seeded into AAV and DNAPKi-free media at a density of 3.5×10^5 cells/mL.
The frequency of homology directed repair (HDR) and other editing outcomes at HBB were measured using Next Generation Sequencing (NGS). An NGS assay was developed to determine the frequency of at the HBB locus by quantifying the total number of alleles that have been either: (1) not edited (% WT), (2) changed by HDR to incorporate sequence differences present in the AAV repair template (% HR), or (3) mutated during the genome correction process resulting in a gene that produces mutant β-globin (% INDELs).
For this assay, genomic DNA was harvested from cells using a Quick-DNA 96 Plus Kit (Zymo Research). The DNA concentration was measured using a Qubit 1×dsDNA BR assay kit (ThermoFisher). Purified genomic DNA was then used to amplify the HBB locus via polymerase chain reaction (PCR). The PCR products were diluted using nuclease-free water to serve as the template DNA for targeted NGS library prep. A second PCR with primers carrying partial Illumina adapters was performed to amplify a 142 base pair sequence that includes the region of the HBB locus that is to be corrected during the genome correction process. The PCR products were diluted again to serve as templates in a third PCR reaction using Nextera XT index primers. This third PCR reaction was used to assign unique identifiers to each sample and to add the full length adapter sequences necessary for Illumina sequencing. The size of the PCR products was assessed on an Agilent BioAnalyzer. PCR products were then pooled, purified using a Qiagen PCR purification kit, and quantified using PicoGreen in order to ready the PCR products for sequencing.
Based on the PicoGreen concentration, the library of pooled PCR products was diluted to a final concentration of 4 nM. Sequencing was performed on a MiSeq system using an Illumina MiSeq sequencing reagent kit (V2, 300 cycles). A 10% PhiX control library was added to the sample library to improve sequence diversity and to allow for error rate measurements. The library was denatured and loaded at […] onto the sequencing reagent cartridge. The sequencing entails paired-end 150 base pair reads and dual indexing reads. The sequencing data was demultiplexed based on the sample indexes provided and FASTQ files for each sample are generated.
The FASTQ files were processed using the CRISPResso2 pipeline^3. The data was reported as % WT, % corrected by HR, and % INDELs. […]

CD34+ HSPCs [2] = assay: DNA damage response (DDR) markers yH2AX and p21 in edited HSPCs; details: protein 0.8 mg/mL; any given MOI (78.125-2500); 24 h post nucleofection
Method: In order to quantify the induction of the DNA damage response (DDR) pathways, a subset of edited cells was harvested 24 h post nucleofection to quantify DDR markers p21 and yH2AX^5.

CD34+ HSPCs [3] = assay: editing of CD34+ HSPCs with purified i53 variant proteins and HBB-UBC-GFP AAV donor; flow cytometry; assay type: cell-based, human; details: for increase of % HDR over DM: HBB-UBC-GFP AAV MOI 1250, protein 0.4 mg/mL, GFP integration in live cells, L67R/L67H value is the average of both; for increase in levels of GFP integration over control edited without protein: HBB-UBC-GFP AAV MOI 2500, average across all concentrations tested (0.1-0.8 mg/mL) and of L67R and L67H
Method: as §1, §2
Rates of targeted integration of the HBB UBC GFP donor were measured using a Beckman Coulter CytoFLEX. DAPI (Miltenyi Biotec) was used to discriminate live and dead cells. Flow cytometry data were analyzed using FlowJo 10 software.

53BP1 Tudor domain = 53BP1 Tudor domain (Homo sapiens, UniProt Q12888); assay: Bio-Layer Interferometry (BLI) with immobilized 53BP1 Tudor domain; details: biotin-labeled immobilized 53BP1 Tudor domain; 1:1 binding model
Method: Data were collected using an Octet R8 system (Sartorius). Purified 53BP1 Tudor domain was labeled at exposed primary amine groups with NHS-biotin using ChromaLINK NHS-Biotin protein labeling kit (Vector Laboratories). 1 equivalent of chromalink biotin was incubated with the 53BP1 Tudor domain for 2 hours and buffer exchanged into fresh PBS. Labeling efficiency was calculated to be approximately 1 biotin per molecule of 53BP1 Tudor domain. Octet SA Biosensor tips (Sartorius) were incubated with biotin-labeled 53BP1 Tudor domain (ligand) for 60-80 seconds. The labeled tip was then dipped in 1× binding buffer (Sartorius) for 60 seconds to remove excess ligand and achieve baseline. […] A range of analyte concentrations were tested from a highest to lowest concentration in nM (i.e. 200, 100, 50, 25, 12.5, 6.25, 3.125). The tips were then introduced to 1× binding buffer for 5 minutes and the response was continuously monitored to detect dissociation. A dissociation constant (KD) was calculated using a 1:1 binding model and the on-rate (ka) and off-rate […] were calculated as a change in response (nm) over time (sec).

CD34+ HSPCs [4] = assay: validation of individual i53 variants via lentiviral expression; GFP integration by flow cytometry (HBB-UBC-GFP AAV); assay type: cell-based, human; details: HBB-UBC-GFP AAV MOI=1250
Text: Sequences of individual i53 variants of interest were cloned into the lentiviral-based expression plasmid described above. Hits were validated either as pooled “validation libraries” (variant and control plasmids manually mixed to generate a pool of 5-25 variants) or individually. Lentivirus generated from these plasmids was used to transduce CD34+ HSPC cells at MOIs of 0.5-1 at day 1 post thaw. […] Cells transduced with pooled validation libraries were edited in triplicate or quadruplet; cells transduced with individual variants were edited in duplicate.
For individual testing of variants, rates of integration of the HBB-UBC-GFP donor were measured using a Beckman Coulter CytoFLEX. DAPI (Miltenyi Biotec) was used to discriminate live and dead cells. mCherry expression was used to differentiate transduced cells from untransduced cells and rates of GFP integration were compared between the two populations to quantify the impact of lentiviral-based variant expression on HDR rates. Flow cytometry data were analyzed using FlowJo 10 software.

Chain of 53BP1 Tudor domain (Q12888 1484-1603): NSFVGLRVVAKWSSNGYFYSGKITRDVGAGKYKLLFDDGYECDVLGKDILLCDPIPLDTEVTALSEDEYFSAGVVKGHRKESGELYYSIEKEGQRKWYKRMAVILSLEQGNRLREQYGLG

Substance	increase of % HDR over control edited without protein (CD34+ HSPCs [1]; HBB-SNP AAV MOI 312.5)	increase of % HDR over control edited without protein (CD34+ HSPCs [1]; HBB-SNP AAV MOI 2500)	increase in levels of HDR corrected alleles over DM (CD34+ HSPCs [1]; HBB-SNP AAV MOI 312.5)	levels of % HDR corrected alleles (CD34+ HSPCs [1])	increase in levels of HDR corrected alleles over DM (CD34+ HSPCs [1]; HBB-SNP AAV MOI 2500)	impact on % NHEJ (CD34+ HSPCs [1])	p21 response (CD34+ HSPCs [2])	yH2AX response (CD34+ HSPCs [2])	increase of % HDR over DM (CD34+ HSPCs [3])	increase in levels of GFP integration over control edited without protein (CD34+ HSPCs [3])	rate of binding compared to parent i53 (53BP1 Tudor domain)	rates of GFP integration in mCherry+ live cells in relation to mCherry- control cells, compared with i53 and DM (CD34+ HSPCs [4])
L67R: i53 variant with Arg at position 67	62%	27%	56%	approaching those using 2500 MOI alone	44%	more significant impact on % NHEJ relative to i53	not found to significantly increase	not found to significantly increase	69%	70%	measurably increased rate of binding compared to parent i53	higher rates of GFP integration
L67H: i53 variant with His at position 67	62%	27%	56%	approaching those using 2500 MOI alone	44%	more significant impact on % NHEJ relative to i53			69%	70%	measurably increased rate of binding compared to parent i53	higher rates of GFP integration
